Assay results as given in US5196447A, “Neristatin 1” (Arizona Board of Regents, a body Corporate of The State of …, priority 1991, dated 1993).
Converted amounts (≈) assume the structure as drawn.

Columns and labels:
protein kinase C [1] = assay: Usual phorbol ester binding conditions using reconstitution of protein kinase C in phosphatidylserine
P388 cell line = assay: Activity against the P388 lymphocytic leukemia cell line; type: cell-based, murine
protein kinase C [2] = assay: Competition for [26-3H] bryostatin 4 binding to protein kinase C (phosphatidylserine/TRITON X-100 mixed micelles)
[3] = Stability in recrystallization attempts / various solvents; type: physicochemical

For `COC(=O)C=C1CC2C=CC(C)(C)C(=O)C34OC(=O)CC3CC(CC(O)C(C)OC(=O)CC(O)CC3CC(OC(=O)C(C)(C)C)C(C)(C)C(O)(CC(C1)O2)O3)O4` (stereo not shown) [neristatin 1], the “affinity for protein kinase C compared with phorbol 12,13-dibutyrate” value (protein kinase C [1]; relative to phorbol 12,13-dibutyrate) was “an order of magnitude less”, the Ki (protein kinase C [1]; usual phorbol ester binding conditions, reconstitution in phosphatidylserine, neristatin 1: mean±sem, 3 experiments) was 21.2 ± 1.3 nM and the IC50 (P388 cell line; Mus musculus, read-out: ED50 (the source's name)) was 10 µg/mL (≈ 12.6 µM). For the same compound, the “potency compared to bryostatin 5” value (P388 cell line; relative to bryostatin 5) was “reduced but still significant potency”, the Ki (protein kinase C [2]; phosphatidylserine/TRITION X-100 mixed micelles, competition for [26-3H] bryostatin 4, neristatin 1: mean±SEM, 4 experiments) was 124 ± 10 nM and the “affinity for protein kinase C compared with bryostatin 4” value (protein kinase C [2]; relative to bryostatin 4) was “at least two orders of magnitude less”. For the same compound, the “stability of small samples in various solvents” value [3] was “rapidly degraded in various solvents”.
